For data set [1], the system named is pentosidine (AGEs) formation in serum of kidney failure patients. In words: AGEs formation inhibitory effect (pentosidine production in serum protein, HPLC). It is filed as biochemical, human. As to conditions: test compound final concentration 5 mM, incubated at 37° C. for one week, proportion to pentosidine production amount by control. The method, then:
AGEs Formation Inhibitory Effect
A solution (50 μl) of the test compound (final concentration 5 mM) in dimethyl sulfoxide was added to a protein (450 μl, serum of kidney failure patients who gave informed consent), and the mixture was incubated at 37° C. for one week. Pentosidine, which is one of the AGEs produced, was measured as follows. To separate pentosidine produced in the protein, 10% trichloroacetic acid (50 μl) was added to the sample after the reaction (50 μl) and the mixture was centrifuged and the precipitated protein was recovered. The recovered protein was washed with 300 μl of 5% trichloroacetic acid, dried and hydrolyzed with 6N hydrochloric acid (100 μl) at 110° C. for 16 hrs. The amount (nmol/l) of pentosidine produced was measured by HPLC (ODS C18, 4.6×250 mm, 335 nm, 385 nm) using a fluorescence detector by the gradient of 30 min., 1.0 ml/min with 0.1% trifluoroacetic acid added distilled water/0.08% trifluoroacetic acid added 80% acetonitrile as a mobile phase (Miyata, T et al.: J. Am. Soc. Nephrol., 7, 1198-1206, 1996, and Miyata, T. et al.: Proc. Natl. Acad. Sci. USA, 93 2353-2358, 1996).
To study AGEs formation inhibitory effect, the proportion of the aforementioned pentosidine production amount to the pentosidine production amount by control was calculated as pentosidine production rate (%).

Regarding `CCCCC(=O)N(Cc1ccc(C2SC(=O)NC2=O)cc1)c1cccc(C(=O)O)c1` (stereo not shown) [Example 22, 3-[N-[4-(2,4-dioxothiazolidin-5-yl)benzyl]-N-pentanoylamino]benzoic acid], the “pentosidine production rate (%)” value in data set [1] is given as 12.4%.

In the case of `CCCCC(=O)N(Cc1ccc(-c2ccccc2-c2nnn[nH]2)cc1)c1cccc(C(=O)O)c1` [Example 1, 3-[N-[[4-[2-(1H-tetrazol-5-yl)phenyl]phenyl]methyl]-N-pentanoylamino]benzoic acid], the “pentosidine production rate (%)” value in data set [1] was found to be 18.1%. The same measure, in the same setting: next, `CCCc1nc2c(C)cc(C)nc2n1Cc1ccc(C2SC(=O)NC2=O)cc1` (stereo not shown) [Example 19, 5-[4-[(5,7-dimethyl-2-propylimidazo[4,5-b]pyridin-3-yl)methyl]phenyl]-1,3-thiazolidine-2,4-dione]: 23.8%; `CCCCC(=O)N(Cc1ccc(-c2ccccc2-c2nnn[nH]2)cc1)c1cccc(C(=O)OCc2oc(=O)oc2C)c1` [Example 6, (5-methyl-2-oxo-1,3-dioxolen-4-yl)methyl3-[N-[[4-[2-(1H-tetrazol-5-yl)phenyl]phenyl]methyl]-N-pentanoylamino]benzoate]: 16.8%. The same measure, in the same setting: under `CCCC1Oc2ccc(C(=O)O)cc2N(Cc2ccc(-c3nnn[nH]3)cc2)C1=O` (stereo not shown) [Example 15, 3-oxo-2-propyl-4-[4-[4-(1H-tetrazol-5-yl)phenyl]methyl]2-H-benzo[e]1,4-oxazine-6-carboxylic acid] stands 23.8%; under `CCCCC(=O)N(Cc1ccc(-c2ccccc2-c2nnn[nH]2)cc1)c1ccc(C(=O)O)cc1` [Example 9, 4-[N-[[4-[2-(1H-tetrazol-5-yl)phenyl]phenyl]methyl]-N-pentanoylamino]benzoic acid], 30.8%; under `CC(=O)N(Cc1ccc(-c2ccccc2-c2nnn[nH]2)cc1)c1cccc(C(=O)O)c1` [Example 2, 3-[N-[[4-[2-(1H-tetrazol-5-yl)phenyl]phenyl]methyl]-N-acetylamino]benzoic acid], 26.1%. Still for that read-out and setting: under `CCCC1Cc2ccc(C(=O)O)cc2N(Cc2ccc(-c3ccccc3-c3nnn[nH]3)cc2)C1=O` (stereo not shown) [Example 10, 2-oxo-3-propyl-1-[[4-[2-(1H-tetrazol-5-yl)phenyl]phenyl]methyl]-1,3,4-trihydroquinoline-7-carboxylic acid] stands 18.0%. In the case of `CCc1nc2c(C)cc(C)nc2n1Cc1ccc(C2SC(=O)NC2=O)cc1` (stereo not shown) [Example 18, 5-[4-[(2-ethyl-5,7-dimethylimidazo[4,5-b]pyridin-3-yl)methyl]phenyl]-1,3-thiazolidine-2,4-dione], the melting point (in general, the temperature, or range, at which the solid turns liquid) was in the range of 221 to 222 °C. In addition, the “pentosidine production rate (%)” value in data set [1] came to 18.0%. On to `CCCCC(=O)N(Cc1ccc(-c2ccccc2-c2nnn[nH]2)cc1)c1ccccc1C(=O)O` [Example 8, 2-[N-[[4-[2-(1H-tetrazol-5-yl)phenyl]phenyl]methyl]-N-pentanoylamino]benzoic acid], for which the “pentosidine production rate (%)” value in data set [1] is given as 23.5%. The same measure, in the same setting: under `CCCC1Cc2cc(C(=O)O)ccc2N(Cc2ccc(-c3ccccc3-c3nnn[nH]3)cc2)C1=O` (stereo not shown) [Example 11, 2-oxo-3-propyl-1-[[4-[2-(1H-tetrazol-5-yl)phenyl]phenyl]methyl]-1,3,4-trihydroquinoline-6-carboxylic acid] stands 24.9%; under `CCC(=O)N(Cc1ccc(-c2ccccc2-c2nnn[nH]2)cc1)c1cccc(C(=O)O)c1` [Example 3, 3-[N-[[4-[2-(1H-tetrazol-5-yl)phenyl]phenyl]methyl]-N-propanoylamino]benzoic acid], 21.3%; under `CCCC(=O)N(Cc1ccc(-c2ccccc2-c2nnn[nH]2)cc1)c1cccc(C(=O)O)c1` [Example 4, 3-[N-[[4-[2-(1H-tetrazol-5-yl)phenyl]phenyl]methyl]-N-butanoylamino]benzoic acid], 17.4%. `O=C1CCc2ccccc2N1Cc1ccc(-c2ccccc2-c2nnn[nH]2)cc1` [Example 13, 1-[[4-[2-(1H-tetrazol-5-yl)phenyl]phenyl]methyl]-1,3,4-trihydroquinolin-2-one]: the “pentosidine production rate (%)” value in data set [1] worked out at 45.4%. The same measure, in the same setting: next, `CCCC1Cc2ccc(C(=O)OCc3oc(=O)oc3C)cc2N(Cc2ccc(-c3ccccc3-c3nnn[nH]3)cc2)C1=O` (stereo not shown) [Example 12, (5-methyl-2-oxo-1,3-dioxolen-4-yl)methyl2-oxo-3-propyl-1-[[4-[2-(1H-tetrazol-5-yl)phenyl]phenyl]methyl]-1,3,4-trihydroquinoline-7-carboxylate]: 29.0%. On the same count and under the same terms, under `CCCC1Sc2ccc(C(=O)O)cc2N(Cc2ccc(-c3nnn[nH]3)cc2)C1=O` (stereo not shown) [Example 17, 3-oxo-2-propyl-4-[[4-(1H-tetrazol-5-yl)phenyl]methyl]2-H-benzo[e]1,4-thiazine-6-carboxylic acid] stands 35.0%. With `CCCC1Oc2ccc(C(=O)O)cc2N(Cc2ccc(-c3ccccc3-c3nnn[nH]3)cc2)C1=O` (stereo not shown) [Example 14, 3-oxo-2-propyl-4-[[4-[2-(1H-tetrazol-5-yl)phenyl]phenyl]methyl]-2H-benzo[e]1,4-oxazine-6-carboxylic acid], the melting point is 197 to 198 °C. In addition, the “pentosidine production rate (%)” value in data set [1] was 22.1%. On to `CCCCCCCC(=O)N(Cc1ccc(-c2ccccc2-c2nnn[nH]2)cc1)c1cccc(C(=O)O)c1` [Example 5, 3-[N-[[4-[2-(1H-tetrazol-5-yl)phenyl]phenyl]methyl]-N-octanoylamino]benzoic acid], for which the “pentosidine production rate (%)” value in data set [1] was 9.33%. In the case of `CCCCC(=O)N(Cc1ccc(-c2nnn[nH]2)cc1)c1cccc(C(=O)O)c1` [Example 7, 3-[N-[[4-(1H-tetrazol-5-yl)phenyl]methyl]-N-pentanoylamino]benzoic acid], in data set [1], the “pentosidine production rate (%)” value is recorded as 27.2%. On the same count and under the same terms, under `CCCC1Sc2ccc(C(=O)O)cc2N(Cc2ccc(-c3ccccc3-c3nnn[nH]3)cc2)C1=O` (stereo not shown) [Example 16, 3-oxo-2-propyl-4-[[4-[2-(1H-tetrazol-5-yl)phenyl]phenyl]methyl]-2H-benzo[e]1,4-thiazine-6-carboxylic acid] stands 25.8%.

Values taken from US7417052B2, “Phenylene derivative having tetrazole ring or thiazolidinedione ring” (Sankyo Company, Limited, priority 2003, dated 2008).
